In PMC9533837 (Antiviral Research, 2003):
≈ marks a conversion by molar mass, not a printed value. Entries after “also recorded” stand apart in the source; their conditions may differ. Read-outs that look alike come from different tables or passages of the source.

Tests used:
[1] = test system: VAR-BSH (1975 Bangladesh isolate of VAR major); test: organism not typed; type: cell-based, variola major; details: for IC50: Vero, read-out: IC50 VAR-BSH Vero
[2] = test system: VAR-BSH (1975 Bangladesh isolate of VAR major); test: organism not typed; type: cell-based, variola major; details: for IC50: LLC-MK2, read-out: IC50 VAR-BSH LLC-MK2
[3] = test system: VAR-YAM (1946 Japan Yamada isolate of VAR major); test: organism not typed; type: cell-based, variola major; details: for IC50: Vero, read-out: IC50 VAR-YAM Vero
[4] = test system: VAR-YAM (1946 Japan Yamada isolate of VAR major); test: organism not typed; type: cell-based, variola major; details: for IC50: LLC-MK2, read-out: IC50 VAR-YAM LLC-MK2
[5] = test system: VAR-GAR (1966 Brazil Garcia isolate of VAR minor); test: organism not typed; type: cell-based, variola minor; details: for IC50: Vero, read-out: IC50 VAR-GAR Vero
[6] = test system: VAR-GAR (1966 Brazil Garcia isolate of VAR minor); test: organism not typed; type: cell-based, variola minor; details: for IC50: LLC-MK2, read-out: IC50 VAR-GAR LLC-MK2
[7] = test system: MPX Zaire (V79-1-005-Scab); test: organism not typed; type: cell-based, monkeypox; details: for IC50: Vero, read-out: IC50 MPX Vero
[8] = test system: MPX Zaire (V79-1-005-Scab); test: organism not typed; type: cell-based, monkeypox; details: for IC50: LLC-MK2, read-out: IC50 MPX LLC-MK2
[9] = test system: CPX Brighton; test: organism not typed; type: cell-based, cowpox; details: for IC50: Vero, read-out: IC50 CPX Vero
[10] = test system: CPX Brighton; test: organism not typed; type: cell-based, cowpox; details: for IC50: LLC-MK2, read-out: IC50 CPX LLC-MK2
[11] = test system: VAC Copenhagen; test: microbe, parasite or virus in culture; type: cell-based, vaccinia virus; details: for IC50: Orthopoxvirus vaccinia, Vero, read-out: IC50 VAC Vero
[12] = test system: VAC Copenhagen; test: microbe, parasite or virus in culture; type: cell-based, vaccinia virus; details: for IC50: Orthopoxvirus vaccinia, LLC-MK2, read-out: IC50 VAC LLC-MK2
[13] = test system: CPX; parameters: species or system mice; details: mouse, in vivo
[14] = test system: VAC; parameters: species or system mice; details: mouse, in vivo
[15] = test system: Vero cells
[16] = test system: LLC-MK2 cells
[17] = test system: orthopoxviruses (VAR-BSH, VAR-YAM, VAR-GAR, MPX, CPX, VAC); test: organism not typed; type: cell-based
[18] = test system: VAC; details: cited from earlier work

## Nc1nccc2c1ncn2C1C=C(CO)C(O)C1O (single isomer, unassigned; (-)) [C3-Npc A, (−)-9-[trans-2′-trans-3′-dihydroxy-4′-hydroxymethyl-cyclopent-4′-enyl]-3-deazaadenine]
[1]
  Therapeutic index (TI) VAR-BSH Vero: 3333
  IC50: 0.03 µg/mL (≈ 0.114 µM)
[2]
  Therapeutic index (TI) VAR-BSH LLC-MK2: 213
  IC50: 0.47 µg/mL (≈ 1.79 µM)
[3]
  Therapeutic index (TI) VAR-YAM Vero: 2500
  IC50: 0.04 µg/mL (≈ 0.153 µM)
[4]
  Therapeutic index (TI) VAR-YAM LLC-MK2: 417
  IC50: 0.24 µg/mL (≈ 0.915 µM)
[5]
  Therapeutic index (TI) VAR-GAR Vero: 2500
  IC50: 0.04 µg/mL (≈ 0.153 µM)
[6]
  Therapeutic index (TI) VAR-GAR LLC-MK2: 222
  IC50: 0.45 µg/mL (≈ 1.72 µM)
[7]
  Therapeutic index (TI) MPX Vero: 10000
  IC50: 0.01 µg/mL (≈ 0.0381 µM)
[8]
  Therapeutic index (TI) MPX LLC-MK2: 2000
  IC50: 0.05 µg/mL (≈ 0.191 µM)
[9]
  Therapeutic index (TI) CPX Vero: 1.0
  IC50: > 100 µg/mL
[10]
  Therapeutic index (TI) CPX LLC-MK2: 1.0
  IC50: > 100 µg/mL
[11]
  Therapeutic index (TI) VAC Vero: 5000
  IC50: 0.02 µg/mL (≈ 0.0763 µM)
[12]
  Therapeutic index (TI) VAC LLC-MK2: 2000
  IC50: 0.05 µg/mL (≈ 0.191 µM)
[13]
  protective effect on CPX-infected mice: modest protective effect
[14]
  protective effect on VAC-infected mice: modest protective effect
[15]; African green monkey
  Cytotoxicity TC50 Vero: >100 µg/mL
[16]; rhesus monkey
  Cytotoxicity TC50 LLC-MK2: >100 µg/mL

## Nc1c2ncn([C@@H]3O[C@H](CO)[C@@H](O)[C@H]3O)c2nc[n+]1[O-] [ANO, Adenosine N1-oxide]
[17]
  inhibitory activity against the orthopoxviruses tested (in words): little activity
[18]
  inhibition of VAC virus replication in vitro: inhibits VAC virus replication in vitro

## Nc1ncnc2c1ncn2C[C@@H](CO)OCP(=O)(O)O [HPMPA, (S)-9-(3-hydroxy-2-phosphonylmethoxypropyl)adenine]
[1]
  IC50 VAR-BSH Vero: 12.6 µg/mL (≈ 41.6 µM)
  Therapeutic index (TI) VAR-BSH Vero: 7.9
[2]
  IC50 VAR-BSH LLC-MK2: 6.1 µg/mL (≈ 20.1 µM)
  Therapeutic index (TI) VAR-BSH LLC-MK2: 16.4
[3]
  IC50 VAR-YAM Vero: 11.4 µg/mL (≈ 37.6 µM)
  Therapeutic index (TI) VAR-YAM Vero: 8.8
[4]
  IC50 VAR-YAM LLC-MK2: 6.8 µg/mL (≈ 22.4 µM)
  Therapeutic index (TI) VAR-YAM LLC-MK2: 14.7
[5]
  IC50 VAR-GAR Vero: 6.6 µg/mL (≈ 21.8 µM)
  Therapeutic index (TI) VAR-GAR Vero: 15.2
[6]
  IC50 VAR-GAR LLC-MK2: 4.6 µg/mL (≈ 15.2 µM)
  Therapeutic index (TI) VAR-GAR LLC-MK2: 21.7
[7]
  IC50 MPX Vero: 10.9 µg/mL (≈ 35.9 µM)
  Therapeutic index (TI) MPX Vero: 9.2
[8]
  IC50 MPX LLC-MK2: 9.2 µg/mL (≈ 30.3 µM)
  Therapeutic index (TI) MPX LLC-MK2: 10.9
[9]
  IC50 CPX Vero: 8.4 µg/mL (≈ 27.7 µM)
  Therapeutic index (TI) CPX Vero: 11.9
[10]
  IC50 CPX LLC-MK2: 7.7 µg/mL (≈ 25.4 µM)
  Therapeutic index (TI) CPX LLC-MK2: 13.0
[11]
  IC50 VAC Vero: 8.1 µg/mL (≈ 26.7 µM)
  Therapeutic index (TI) VAC Vero: 12.3
[12]
  IC50 VAC LLC-MK2: 8.0 µg/mL (≈ 26.4 µM)
  Therapeutic index (TI) VAC LLC-MK2: 12.5
[17]
  TI against the panel of viruses: 11.9
  mean IC50 against the panel of viruses: 8.4 ± 0.67 µg/mL
[15]
  Cytotoxicity TC50 Vero: >100 µg/mL
[16]
  Cytotoxicity TC50 LLC-MK2: >100 µg/mL
[18]
  inhibition of VAC replication in vitro: inhibit VAC replication in vitro

## NC(=O)NO [Hydroxyurea, hydroxyurea]
[17]
  inhibitory activity against the orthopoxviruses tested (in words): inactive

## CN1C(=O)/C(=N\NC(N)=S)c2ccccc21 [Methisazone, methisazone]
[1]
  Therapeutic index (TI) VAR-BSH Vero: 3.0
  IC50: 34.6 µg/mL (≈ 148 µM)
[2]
  Therapeutic index (TI) VAR-BSH LLC-MK2: 2.4
  IC50: 41.2 µg/mL (≈ 176 µM)
[3]
  Therapeutic index (TI) VAR-YAM Vero: 2.6
  IC50: 39 µg/mL (≈ 166 µM)
[4]
  Therapeutic index (TI) VAR-YAM LLC-MK2: 2.3
  IC50: 43.3 µg/mL (≈ 185 µM)
[5]
  Therapeutic index (TI) VAR-GAR Vero: 4.6
  IC50: 21.6 µg/mL (≈ 92.2 µM)
[6]
  Therapeutic index (TI) VAR-GAR LLC-MK2: 2.3
  IC50: 44.1 µg/mL (≈ 188 µM)
[7]
  Therapeutic index (TI) MPX Vero: 1.5
  IC50: 66.2 µg/mL (≈ 283 µM)
[8]
  Therapeutic index (TI) MPX LLC-MK2: 1.2
  IC50: 80.4 µg/mL (≈ 343 µM)
[9]
  Therapeutic index (TI) CPX Vero: 2.0
  IC50: 49.2 µg/mL (≈ 210 µM)
[10]
  Therapeutic index (TI) CPX LLC-MK2: 2.2
  IC50: 45.2 µg/mL (≈ 193 µM)
[11]
  Therapeutic index (TI) VAC Vero: 2.2
  IC50: 45.8 µg/mL (≈ 195 µM)
[12]
  Therapeutic index (TI) VAC LLC-MK2: 1.9
  IC50: 52 µg/mL (≈ 222 µM)
[15]; African green monkey
  Cytotoxicity TC50 Vero: >100 µg/mL
[16]; rhesus monkey
  Cytotoxicity TC50 LLC-MK2: >100 µg/mL

## Nc1ncnc2c1ncn2CCOCP(=O)(O)O [PMEA, 9-[2-(phosphonomethoxy)ethyl]adenine]
[17]
  inhibitory activity against the orthopoxviruses tested (in words): Neither PMEA nor bis-POM-PMEA was effective

## NC(=O)c1csc([C@@H]2O[C@H](CO)[C@@H](O)[C@H]2O)n1 [Tiazofurin, 2-β-D-ribofuranosylthiazole-4-carboxamide]
[1]
  Therapeutic index (TI) VAR-BSH Vero: 4.0
  IC50: 22.6 µg/mL (≈ 86.8 µM)
[2]
  Therapeutic index (TI) VAR-BSH LLC-MK2: 18.2
  IC50: 5.5 µg/mL (≈ 21.1 µM)
[3]
  Therapeutic index (TI) VAR-YAM Vero: 4.2
  IC50: 21.4 µg/mL (≈ 82.2 µM)
[4]
  Therapeutic index (TI) VAR-YAM LLC-MK2: 25.6
  IC50: 3.9 µg/mL (≈ 15 µM)
[5]
  Therapeutic index (TI) VAR-GAR Vero: 4.5
  IC50: 19.8 µg/mL (≈ 76.1 µM)
[6]
  Therapeutic index (TI) VAR-GAR LLC-MK2: 16.4
  IC50: 6.1 µg/mL (≈ 23.4 µM)
[7]
  Therapeutic index (TI) MPX Vero: 4.5
  IC50: 20 µg/mL (≈ 76.8 µM)
[8]
  Therapeutic index (TI) MPX LLC-MK2: 19.2
  IC50: 5.2 µg/mL (≈ 20 µM)
[9]
  Therapeutic index (TI) CPX Vero: 2.6
  IC50: 34.6 µg/mL (≈ 133 µM)
[10]
  Therapeutic index (TI) CPX LLC-MK2: 9.1
  IC50: 11 µg/mL (≈ 42.3 µM)
[11]
  Therapeutic index (TI) VAC Vero: 1.0
  IC50: > 100 µg/mL
[12]
  Therapeutic index (TI) VAC LLC-MK2: 3.0
  IC50: 33.3 µg/mL (≈ 128 µM)
[17]; LLC-MK2, read-out: mean IC50 on LLC-MK2 cells
  IC50: 10.8 ± 4.6 µg/mL (≈ 41.5 µM)
[17]; Vero, read-out: mean IC50 on Vero cells
  IC50: 36.4 ± 12.9 µg/mL (≈ 140 µM)
[15]; African green monkey
  Cytotoxicity TC50 Vero: 90.0 µg/mL
[16]; rhesus monkey
  Cytotoxicity TC50 LLC-MK2: >100 µg/mL

## Nc1nc2c(ncn2COCCO)c(=O)[nH]1 [acyclovir, Acyclovir]
[17]
  inhibitory activity against the orthopoxviruses tested (in words): No other test compounds of this group (acyclovir, brovavir, lobucavir, didanosine, ddC, or d4C) showed any activity; also recorded: failed to inhibit orthopoxvirus replication

## O=c1[nH]c(=O)n([C@@H]2O[C@H](CO)[C@@H](O)[C@@H]2O)cc1/C=C/Br [brovavir, Brovavir]
[17]
  inhibitory activity against the orthopoxviruses tested (in words): No other test compounds of this group (acyclovir, brovavir, lobucavir, didanosine, ddC, or d4C) showed any activity; also recorded: failed to inhibit orthopoxvirus replication

## Nc1ccn([C@H]2C=C[C@@H](CO)O2)c(=O)n1 [d4C, 2′,3′-dideoxydidehydrocytidine]
[17]
  inhibitory activity against the orthopoxviruses tested (in words): No other test compounds of this group (acyclovir, brovavir, lobucavir, didanosine, ddC, or d4C) showed any activity

## Nc1ccn([C@H]2CC[C@@H](CO)O2)c(=O)n1 [ddC, zalcitabine]
[17]
  inhibitory activity against the orthopoxviruses tested (in words): No other test compounds of this group (acyclovir, brovavir, lobucavir, didanosine, ddC, or d4C) showed any activity

## O=c1[nH]cnc2c1ncn2[C@H]1CC[C@@H](CO)O1 [didanosine]
[17]
  inhibitory activity against the orthopoxviruses tested (in words): No other test compounds of this group (acyclovir, brovavir, lobucavir, didanosine, ddC, or d4C) showed any activity

## O=C1Nc2ccc(Cl)cc2[C@@](C#CC2CC2)(C(F)(F)F)O1 [efavirenz]
[17]
  inhibitory activity against the orthopoxviruses tested (in words): inactive

## Nc1nc(=O)c2ncn([C@@H]3C[C@H](CO)[C@H]3CO)c2[nH]1 [lobucavir, [1R(1α,2β,3α)]-9-[2,3-bis(hydroxymethyl)cyclobutyl]guanine]
[17]
  inhibitory activity against the orthopoxviruses tested (in words): No other test compounds of this group (acyclovir, brovavir, lobucavir, didanosine, ddC, or d4C) showed any activity; also recorded: failed to inhibit orthopoxvirus replication

## Cc1c(O)cccc1C(=O)N[C@@H](CSc1ccccc1)[C@H](O)CN1C[C@H]2CCCC[C@H]2C[C@H]1C(=O)NC(C)(C)C [nelfinavir, Nelfinavir]
[17]
  inhibitory activity against the orthopoxviruses tested (in words): inactive

## CC(C)c1nc(CN(C)C(=O)N[C@H](C(=O)N[C@@H](Cc2ccccc2)C[C@H](O)[C@H](Cc2ccccc2)NC(=O)OCc2cncs2)C(C)C)cs1 [ritonavir, Ritonavir]
[17]
  inhibitory activity against the orthopoxviruses tested (in words): inactive

## CC(C)(C)NC(=O)[C@@H]1C[C@@H]2CCCC[C@@H]2CN1C[C@@H](O)[C@H](Cc1ccccc1)NC(=O)[C@H](CC(N)=O)NC(=O)c1ccc2ccccc2n1 [saquinavir, Saquinavir]
[17]
  inhibitory activity against the orthopoxviruses tested (in words): inactive

## Cc1cn([C@H]2C=C[C@@H](CO)O2)c(=O)[nH]c1=O [stavudine]
[17]
  inhibitory activity against the orthopoxviruses tested (in words): inactive

## Cc1cn([C@H]2C[C@H](N=[N+]=[N-])[C@@H](CO)O2)c(=O)[nH]c1=O [zidovudine]
[17]
  inhibitory activity against the orthopoxviruses tested (in words): inactive
